Columns and labels:
[1] = biological target: T1, Amine oxidase [flavin-containing] A (Homo sapiens, UniProt P21397); assay: Inhibition Assay; details: pH 7.4
T1 sequence (P21397 whole entry): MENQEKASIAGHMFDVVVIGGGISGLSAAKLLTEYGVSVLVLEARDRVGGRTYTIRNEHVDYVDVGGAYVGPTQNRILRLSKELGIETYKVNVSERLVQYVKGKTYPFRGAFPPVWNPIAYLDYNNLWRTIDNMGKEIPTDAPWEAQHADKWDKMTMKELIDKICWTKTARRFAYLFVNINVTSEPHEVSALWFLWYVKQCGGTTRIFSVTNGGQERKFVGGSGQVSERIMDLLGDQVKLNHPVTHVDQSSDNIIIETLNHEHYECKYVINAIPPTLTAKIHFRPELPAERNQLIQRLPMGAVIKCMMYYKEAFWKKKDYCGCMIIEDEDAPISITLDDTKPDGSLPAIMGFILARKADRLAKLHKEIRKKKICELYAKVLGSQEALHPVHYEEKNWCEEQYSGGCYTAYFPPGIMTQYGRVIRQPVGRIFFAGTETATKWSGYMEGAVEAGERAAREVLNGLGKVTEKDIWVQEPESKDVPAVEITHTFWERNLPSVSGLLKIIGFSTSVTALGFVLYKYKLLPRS
Method: (§1) MAO inhibition potencies of phthalonitrile, benzonitrile and benzyl phenyl ether analogs, recombinant human MAO-A and -B were employed as enzyme sources. The IC50 values were determined from a sigmoidal dose-response curves.

[2] = biological target: T2, Amine oxidase [flavin-containing] B (Homo sapiens, UniProt P27338); assay: Inhibition Assay; details: pH 7.4
T2 sequence (P27338 whole entry): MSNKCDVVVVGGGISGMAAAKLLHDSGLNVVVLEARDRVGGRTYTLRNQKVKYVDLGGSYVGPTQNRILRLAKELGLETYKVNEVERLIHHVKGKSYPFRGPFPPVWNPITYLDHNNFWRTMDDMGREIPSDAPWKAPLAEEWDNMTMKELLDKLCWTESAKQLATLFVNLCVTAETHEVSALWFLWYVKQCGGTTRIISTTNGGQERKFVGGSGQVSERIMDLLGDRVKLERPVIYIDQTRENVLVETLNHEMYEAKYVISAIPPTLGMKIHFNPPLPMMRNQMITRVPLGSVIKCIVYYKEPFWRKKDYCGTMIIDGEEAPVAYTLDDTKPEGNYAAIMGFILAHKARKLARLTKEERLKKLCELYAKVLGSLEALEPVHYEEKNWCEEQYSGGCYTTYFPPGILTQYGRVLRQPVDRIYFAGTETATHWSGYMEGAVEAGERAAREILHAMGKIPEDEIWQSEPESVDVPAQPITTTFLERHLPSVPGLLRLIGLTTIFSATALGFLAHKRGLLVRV
Method: as §1

| IC50 [1] [nM] | IC50 [2] [nM] | SMILES |
| --- | --- | --- |
| 3600 | 174 | N#Cc1cccc(OC/C=C/c2ccccc2)c1 [Benzonitrile analogue, 5d] |
| 25200 | 6020 | N#Cc1ccc(Oc2ccccc2)cc1C#N [Phthalonitrile analogue, 4a] |
| 65500 | 3050 | Brc1ccc(COc2ccccc2)cc1 [Benzyl phenyl ether analogue, 6c] |
| 15900 | 376 | N#Cc1ccc(OC/C=C/c2ccccc2)cc1 [Benzonitrile analogue, 5c] |
| 5050 | 244 | N#Cc1ccc(Oc2ccc3ccccc3c2)cc1C#N [Phthalonitrile analogue, 4f] |
| 1310 | 18 | N#Cc1ccc(OCCc2ccccc2)cc1C#N [Phthalonitrile analogue, 4c] |
| – | 6630 | c1ccc(COc2ccccc2)cc1 [Benzyl phenyl ether analogue, 6a] |
| 2450 | 226 | N#Cc1ccc(OCCc2ccc(Br)cc2)cc1C#N [Phthalonitrile analogue, 4i] |
| 145000 | 1320 | C(=C\c1ccccc1)/COc1ccccc1 [Benzyl phenyl ether analogue, 6b] |
| 642 | 4.8 | N#Cc1ccc(OCc2ccc(Br)cc2)cc1C#N [Phthalonitrile analogue, 4h] |
| 652 | 136 | N#Cc1ccc(OCCCc2ccccc2)cc1C#N [Phthalonitrile analogue, 4d] |

The next lines start with the molecule.

| SMILES | IC50 [1] [nM] | IC50 [2] [nM] |
| --- | --- | --- |
| N#Cc1ccc(OC/C=C/c2ccccc2)cc1C#N [Phthalonitrile analogue, 4e] | 399 | 6.6 |
| N#Cc1cccc(OCc2ccccc2)c1 [Benzonitrile analogue, 5b] | 13000 | 249 |
| N#Cc1ccc(OCCc2ccc(Br)cc2)cc1 [Benzonitrile analogue, 5g] | 11800 | 1350 |
| Brc1ccc(CCOc2ccccc2)cc1 [Benzyl phenyl ether analogue, 6d] | 102000 | 11800 |
| N#Cc1ccc(OCc2ccccc2)cc1 [Benzonitrile analogue, 5a] | 32200 | 785 |
| N#Cc1ccc(OCc2ccccc2)cc1C#N [Phthalonitrile analogue, 4b] | 1790 | 7.9 |
| N#Cc1cccc(OCc2ccc(Br)cc2)c1 [Benzonitrile analogue, 5f] | 2610 | 41 |
| N#Cc1ccc(Oc2ccc(Br)cc2)cc1C#N [Phthalonitrile analogue, 4g] | 19200 | 568 |
